Assay results: patent EP0498705A1, “Phenol ethers derivatives, their preparation and their therapeutical use” (SYNTHELABO, priority 1991, dated 1992)

What was measured:
[1] = molecular target: T1, récepteurs β₁ adrénergiques (Cavia porcellus, UniProt H0W3H1); experiment: Blockade of β1 adrenergic receptors in vitro: isoprenaline concentration-effect curves on atrial rate of isolated right atria (Schild analysis); assay type: cell-based, cobaye; details: for déplacement des courbes concentration-effet à l'isoprénaline: R(+) at 0,3, 1, 3 µM, S(-) at 0,1, 0,3, 1 µM, 30 min before the second curve; for Kb: Schild method, antagonism of isoprenaline on atrial rate, isolated guinea pig right atrium, 32°C, confidence interval in brackets, read-out: pA₂ (converted)
T1 construct: L'oreillette droite est séparée du coeur; from tissue; host or cells: isolated right atrium of male guinea pigs
From the text: 1. Efficacité des isomères (S)(-) et (R)(+) du cicloprolol en tant que bloquants des récepteurs β₁ adrénergiques dans des conditions in vitro.
Préparation des oreillettes droites.
Des cobayes mâles (race tricolore : élevage LESSIEUX) pesant 200-250 g sont sacrifiés par dislocation cervicale. Les coeurs sont rapidement retirés de la cage thoracique et placés dans une solution de Krebs dans laquelle barbote un mélange de 95 % de O₂ et 5 % de CO₂. La composition de cette solution en mM est : NaCl 118; KCl 4,7; CaCl₂ 2,6; KH₂PO₄ 1,2; MgCl₂ 1,2; NaHCO₃ 25; glucose 11,7; acide ascorbique 1,0. L'oreillette droite est séparée du coeur. Sa base est attachée à un crochet monté sur un support et son apex à un autre petit crochet auquel un fil est accroché. La préparation est transférée dans un bain à organe contenant 20 ml de solution de Krebs oxygénée à 32°C et le fil est connecté à un transducteur de force (Grass, modèle : FTO3C). Une tension de repos de 0,5 g est appliquée à l'oreillette et les signaux de force contractile servent à déclencher un cardiotachomètre pour mesurer le rythme atrial. La force contractile et le rythme atrial sont enregistrés sur un polygraphe.
Après une période de stabilisation de 50 minutes, le tissu est soumis à une concentration de 0,01 µM d'isoprénaline puis est lavé à plusieurs reprises pendant 20 minutes. Immédiatement après, la courbe concentration-effet complète est déterminée en additionnant au bain des concentrations de plus en plus fortes d'isoprénaline (demi-intervalles de l'échelle logarithmique) jusqu'à ce que le rythme atrial ne puisse plus augmenter davantage. Chaque concentration successive d'isoprénaline est ajoutée quand la réponse à la concentration précédente atteint un état stable apparent. A la fin de cette courbe concentration-effet, la préparation est lavée toutes les 10 minutes, pendant 30 minutes, pour lui laisser retrouver son rythme de battement minimal. Puis, une deuxième courbe de réponse aux concentrations est effectuée 30 minutes après avoir soumis la préparation aux différentes concentrations de R(+)-cicloprolol (0,3; 1; et 3 µM) ou de S(-)-cicloprolol (0,1; 0,3 et 1 µM). Les modifications maximales du rythme atrial engendrées par chaque concentration d'isoprénaline sont exprimées en pourcentage par rapport à la réponse émise lors d'une concentration supramaximale d'isoprénaline. Ces valeurs sont utilisées pour construire la courbe concentration-effet dans un repère semi-logarithmique. Il faut noter que si le rythme initial au début de la seconde courbe concentration-effet diffère de celle de la 1ère courbe, la réponse maximale utilisée pour calculer les pourcentages est déterminée par la différence entre le rythme initial de l'oreillette avant l'initiation de la seconde courbe concentration-effet et le rythme atteint par l'oreillette après l'addition de la plus grande concentration d'isoprénaline lors de la première courbe de réponse.
Le logarithme changé de signe de la concentration d'isoprénaline produisant 50 % de l'effet maximal (pD₂) est calculé pour chaque courbe de réponse avant et après chaque concentration de S(-) ou de R(+)-cicloprolol. Les valeurs logarithmiques (concentration ratio-1) sont portées sur l'ordonnée en fonction du logarithme négatif de la concentration d'antagoniste. (Arunlakshana et Schild, Br. J. Pharmacol. 14, 48-54, 1959). […]

Rat amyélé = experiment: Partial β-agonist activity in vivo: heart rate increase in the pithed rat after cumulative i.v. doses; details: for ED (50 beats per minute increase): iv, dose giving a heart rate increase of 50 beats per minute, pithed rat, i.v., read-out: DE₅₀; for augmentation maximale de fréquence cardiaque (effet agoniste partiel): pithed anaesthetised rat, cumulative i.v. doses
Protocol: 2. Propriétés β-agonistes partielles des isomères (S)(-) et (R)(+) du cicloprolol.
L'activité β-agoniste partielle des deux énantiomères du cicloprolol, a été étudiée in vivo chez le Rat amyélé. Des rats (Spraque-Dawley; Charles River, France) mâles de 250 g environ sont anesthésiés au pentobarbital sodique (55 mg/kg i.p.), amyélés puis placés sous respiration artificielle. La pression artérielle est captée par voie sanglante au niveau de la carotide et l'onde pulsatile alimente un tachographe gui permet de mesurer la fréquence cardiaque. Les composés sont injectés par voie intraveineuse au niveau de la veine fémorale. Ces rats amyélés présentent une fréquence cardiaque réduite d'environ 30 % par rapport à celle de rats intacts anesthésiés. L'activité agoniste partielle des énantiomères est déterminée par l'injection de doses cumulatives des énantiomères. On détermine la dose permettant une augmentation de la fréquence cardiaque de 50 battements par minute (DE₅₀) ainsi que le maximum de l'effet.

[2] = Cardiac stimulant activity in man; assay type: in vivo, homme; details: no method or data given

T1 sequence (H0W3H1 1-470): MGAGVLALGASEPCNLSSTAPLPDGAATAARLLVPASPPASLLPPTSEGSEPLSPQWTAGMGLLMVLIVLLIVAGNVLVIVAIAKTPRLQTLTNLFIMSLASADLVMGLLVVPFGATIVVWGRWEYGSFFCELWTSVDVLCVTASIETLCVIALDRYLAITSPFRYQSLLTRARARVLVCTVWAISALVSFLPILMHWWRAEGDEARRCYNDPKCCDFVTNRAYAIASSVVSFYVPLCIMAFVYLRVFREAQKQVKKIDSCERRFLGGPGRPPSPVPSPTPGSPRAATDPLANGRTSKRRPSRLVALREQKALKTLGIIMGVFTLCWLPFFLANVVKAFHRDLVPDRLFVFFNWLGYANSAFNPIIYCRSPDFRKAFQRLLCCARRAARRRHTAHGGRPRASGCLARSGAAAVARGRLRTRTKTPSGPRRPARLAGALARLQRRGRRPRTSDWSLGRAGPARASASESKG

Kb [1] [nM]	fois plus puissant que le (R)(+)-cicloprolol, comme antagoniste des récepteurs β₁ adrénergiques ([1]; antilog(7,44 - 6,62), ratio of the pA₂ values)	Compound	déplacement des courbes concentration-effet à l'isoprénaline [1]	ED (50 beats per minute increase) (Rat amyélé) [µg/kg]	augmentation maximale de fréquence cardiaque (effet agoniste partiel) (Rat amyélé) [bat/min]	activité stimulante cardiaque [2]
240	–	CC(C)NC[C@@H](O)COc1ccc(OCCOCC2CC2)cc1 [(R)(+)-cicloprolol, (R)-(+)-1-[4-[2(cyclopropylméthoxy)éthoxy]phénoxy]-3-[(1-méthyléthyl)amino]propan-2-ol]	déplacent vers la droite les courbes concentration-effet à l'isoprénaline de façon parallèle et sans changer la réponse maximale	122 ± 2	113 ± 5	–
36.3	6,6 fois	CC(C)NC[C@H](O)COc1ccc(OCCOCC2CC2)cc1 [(S)(-)-cicloprolol, (S)-(-)-1-[4-[2-(cyclopropylméthoxy)éthoxy]phénoxy]-3-[(1-méthyléthyl)amino]propan-2-ol]	déplacent vers la droite les courbes concentration-effet à l'isoprénaline de façon parallèle et sans changer la réponse maximale	4.6 ± 0.1	107 ± 3	–
–	–	CC(C)NCC(O)COc1ccc(OCCOCC2CC2)cc1 (stereo not drawn) [cicloprolol, 1-[4-[2-(cyclopropylméthoxy)éthoxy]phénoxy]-3-[(1-méthyléthyl)amino]propan-2-ol]	–	–	–	a été confirmée chez l'homme
–	–	CC(C)NCC(O)c1ccc(O)c(O)c1 (stereo not drawn) [isoprénaline, reference compound]	–	0.02	~140	–
